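Abbreviation: GI50, concentration required for 50% inhibition of growth. TGI denotes the concentration required for complete inhibition of growth.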
Tests used:
Assay in all cases: DTP human tumour cell line panel, 384-well format
OVCAR-3 ovarian = tested on: OVCAR-3 ovarian
HS 578T breast = tested on: HS 578T breast
OVCAR-5 ovarian = tested on: OVCAR-5 ovarian
SR leukemia = tested on: SR leukemia
NCI-H322M lung = tested on: NCI-H322M lung
BT-549 breast = tested on: BT-549 breast
TK-10 renal = tested on: TK-10 renal
MALME-3M melanoma = tested on: MALME-3M melanoma
SK-MEL-5 melanoma = tested on: SK-MEL-5 melanoma
MOLT-4 leukemia = tested on: MOLT-4 leukemia
T-47D breast = tested on: T-47D breast
SN12C renal = tested on: SN12C renal
ACHN renal = tested on: ACHN renal
KM12 colon = tested on: KM12 colon
NCI-H226 lung = tested on: NCI-H226 lung
NCI-H522 lung = tested on: NCI-H522 lung
HT29 colon = tested on: HT29 colon
COLO 205 colon = tested on: COLO 205 colon
SNB-75 CNS = tested on: SNB-75 CNS
HL-60(TB) leukemia = tested on: HL-60(TB) leukemia
PC-3 prostate = tested on: PC-3 prostate
UO-31 renal = tested on: UO-31 renal
CCRF-CEM leukemia = tested on: CCRF-CEM leukemia
SF-539 CNS = tested on: SF-539 CNS
A549 NSCLC = tested on: A549 NSCLC
NCI-H460 NSCLC = tested on: NCI-H460 NSCLC
U251 glioblastoma = tested on: U251 glioblastoma
DU-145 prostate = tested on: DU-145 prostate
SK-MEL-28 melanoma = tested on: SK-MEL-28 melanoma
HOP-92 NSCLC = tested on: HOP-92 NSCLC
HOP-62 NSCLC = tested on: HOP-62 NSCLC
HCT-15 colon = tested on: HCT-15 colon
MDA-MB-468 breast = tested on: MDA-MB-468 breast
LOX IMVI melanoma = tested on: LOX IMVI melanoma
SNB-19 CNS = tested on: SNB-19 CNS
OVCAR-8 ovarian = tested on: OVCAR-8 ovarian
NCI/ADR-RES ovarian = tested on: NCI/ADR-RES ovarian
MCF7 breast = tested on: MCF7 breast
MDA-MB-231 breast = tested on: MDA-MB-231 breast
SK-OV-3 ovarian = tested on: SK-OV-3 ovarian
A498 renal = tested on: A498 renal
SF-295 CNS = tested on: SF-295 CNS
IGROV1 ovarian = tested on: IGROV1 ovarian
OVCAR-4 ovarian = tested on: OVCAR-4 ovarian
NCI-H23 lung = tested on: NCI-H23 lung
MDA-MB-435 melanoma = tested on: MDA-MB-435 melanoma
786-0 renal = tested on: 786-0 renal
HCC-2998 colon = tested on: HCC-2998 colon
K-562 leukemia = tested on: K-562 leukemia
SF-268 CNS = tested on: SF-268 CNS
RXF 393 renal = tested on: RXF 393 renal
CAKI-1 renal = tested on: CAKI-1 renal
SW-620 colon = tested on: SW-620 colon
UACC-257 melanoma = tested on: UACC-257 melanoma
M14 melanoma = tested on: M14 melanoma
RPMI-8226 leukemia = tested on: RPMI-8226 leukemia
EKVX NSCLC = tested on: EKVX NSCLC
UACC-62 melanoma = tested on: UACC-62 melanoma

Compound: CCN1C(=O)CCCc2c1ccc(Nc1ncc(Cl)c(NC3[C@@H](C(N)=O)[C@@H]4C=C[C@H]3C4)n1)c2OC (stereo partly specified)
- GI50 (OVCAR-3 ovarian): 1020 nM
- TGI (OVCAR-3 ovarian): 2770 nM
- GI50 (HS 578T breast): 437 nM
- TGI (HS 578T breast): 1670 nM
- GI50 (OVCAR-5 ovarian): 559 nM
- TGI (OVCAR-5 ovarian): 2310 nM
- GI50 (SR leukemia): 38 nM
- TGI (SR leukemia): 126 nM
- GI50 (NCI-H322M lung): 1900 nM
- TGI (NCI-H322M lung): 5610 nM
- GI50 (BT-549 breast): 509 nM
- TGI (BT-549 breast): 1880 nM
- GI50 (TK-10 renal): 1300 nM
- TGI (TK-10 renal): 3750 nM
- GI50 (MALME-3M melanoma): 517 nM
- TGI (MALME-3M melanoma): 1920 nM
- GI50 (SK-MEL-5 melanoma): 578 nM
- TGI (SK-MEL-5 melanoma): 1950 nM
- GI50 (MOLT-4 leukemia): 137 nM
- TGI (MOLT-4 leukemia): 287 nM
- GI50 (T-47D breast): 1070 nM
- TGI (T-47D breast): 4240 nM
- GI50 (SN12C renal): 1210 nM
- TGI (SN12C renal): 11100 nM
- GI50 (ACHN renal): 1200 nM
- TGI (ACHN renal): 7310 nM
- GI50 (KM12 colon): 1100 nM
- TGI (KM12 colon): 8560 nM
- GI50 (NCI-H226 lung): 1130 nM
- TGI (NCI-H226 lung): 4420 nM
- GI50 (NCI-H522 lung): 385 nM
- TGI (NCI-H522 lung): 1310 nM
- GI50 (HT29 colon): 450 nM
- TGI (HT29 colon): 2000 nM
- GI50 (COLO 205 colon): 318 nM
- TGI (COLO 205 colon): 1190 nM
- GI50 (SNB-75 CNS): 1100 nM
- TGI (SNB-75 CNS): 9580 nM
- GI50 (HL-60(TB) leukemia): 254 nM
- TGI (HL-60(TB) leukemia): 532 nM
- GI50 (PC-3 prostate): 1240 nM
- TGI (PC-3 prostate): 3810 nM
- GI50 (UO-31 renal): 1630 nM
- TGI (UO-31 renal): 14300 nM
- GI50 (CCRF-CEM leukemia): 220 nM
- TGI (CCRF-CEM leukemia): 402 nM
- GI50 (SF-539 CNS): 475 nM
- TGI (SF-539 CNS): 1780 nM
- GI50 (A549 NSCLC): 366 nM
- TGI (A549 NSCLC): 2550 nM
- GI50 (NCI-H460 NSCLC): 355 nM
- TGI (NCI-H460 NSCLC): 9120 nM
- GI50 (U251 glioblastoma): 632 nM
- TGI (U251 glioblastoma): 10900 nM
- GI50 (DU-145 prostate): 577 nM
- TGI (DU-145 prostate): 2800 nM
- GI50 (SK-MEL-28 melanoma): 1080 nM
- TGI (SK-MEL-28 melanoma): 2570 nM
- GI50 (HOP-92 NSCLC): 665 nM
- TGI (HOP-92 NSCLC): 3990 nM
- GI50 (HOP-62 NSCLC): 644 nM
- TGI (HOP-62 NSCLC): 2990 nM
- GI50 (HCT-15 colon): 288 nM
- TGI (HCT-15 colon): 1210 nM
- GI50 (MDA-MB-468 breast): 365 nM
- TGI (MDA-MB-468 breast): 912 nM
- GI50 (LOX IMVI melanoma): 334 nM
- TGI (LOX IMVI melanoma): 1200 nM
- GI50 (SNB-19 CNS): 1380 nM
- TGI (SNB-19 CNS): 7130 nM
- GI50 (OVCAR-8 ovarian): 349 nM
- TGI (OVCAR-8 ovarian): 1220 nM
- GI50 (NCI/ADR-RES ovarian): 1070 nM
- TGI (NCI/ADR-RES ovarian): 2400 nM
- GI50 (MCF7 breast): 562 nM
- TGI (MCF7 breast): 2340 nM
- GI50 (MDA-MB-231 breast): 726 nM
- TGI (MDA-MB-231 breast): 4400 nM
- GI50 (SK-OV-3 ovarian): 1400 nM
- TGI (SK-OV-3 ovarian): 3250 nM
- GI50 (A498 renal): 1770 nM
- TGI (A498 renal): 11500 nM
- GI50 (SF-295 CNS): 812 nM
- TGI (SF-295 CNS): 8310 nM
- GI50 (IGROV1 ovarian): 1320 nM
- TGI (IGROV1 ovarian): 2770 nM
- GI50 (OVCAR-4 ovarian): 1100 nM
- TGI (OVCAR-4 ovarian): 2700 nM
- GI50 (NCI-H23 lung): 430 nM
- TGI (NCI-H23 lung): 1620 nM
- GI50 (MDA-MB-435 melanoma): 728 nM
- TGI (MDA-MB-435 melanoma): 3490 nM
- GI50 ([…]-0 renal): 624 nM
- TGI (786-0 renal): 2330 nM
- GI50 (HCC-2998 colon): 1680 nM
- TGI (HCC-2998 colon): 3070 nM
- GI50 (K-562 leukemia): 722 nM
- TGI (K-562 leukemia): 11600 nM
- GI50 (SF-268 CNS): 1220 nM
- TGI (SF-268 CNS): 4350 nM
- GI50 (RXF 393 renal): 1620 nM
- TGI (RXF 393 renal): 3950 nM
- GI50 (CAKI-1 renal): 1230 nM
- TGI (CAKI-1 renal): 4500 nM
- GI50 (SW-620 colon): 434 nM
- TGI (SW-620 colon): 1720 nM
- GI50 (UACC-257 melanoma): 677 nM
- TGI (UACC-257 melanoma): 2150 nM
- GI50 (M14 melanoma): 499 nM
- TGI (M14 melanoma): 1700 nM
- GI50 (RPMI-8226 leukemia): 226 nM
- TGI (RPMI-8226 leukemia): 501 nM
- GI50 (EKVX NSCLC): 927 nM
- TGI (EKVX NSCLC): 3260 nM
- GI50 (UACC-62 melanoma): 536 nM
- TGI (UACC-62 melanoma): 1800 nM

Reference: PubChem BioAssay (NCI)
